# Source: patent US20250360167A1 (Keryx Biopharmaceuticals, Inc., priority 2013, published 2025)
# Test: BET active surface area
# Assay type: physicochemical
# Source text: BET theory explains the physical adsorption of gas molecules onto a solid surface. The theory serves as the basis for the measurement of the specific surface area of a material. This theory allows the calculation of surface areas of materials in a very accurate manner and is thus capable of distinguishing differences between separate preparations of what would otherwise appear to be the same material. For example, activated carbon is a form of carbon that has been processed to make it extremely porous and thus to have a very large surface area. Activated carbon has been experimentally determined, using calculations derived from BET theory, to have a surface area of around 3000 m^2 g^−1.
# [1] = Table 1, one value given per pair of samples
BET Active Surface Area [1],BET Active Surface Area (Tables 2 and 3) [m^2/g],Compound
0.61,0.61,O=C([O-])CC(O)(CC(=O)[O-])C(=O)[O-].[Fe+3] [RFS-12-1]
19.85,–,O=C([O-])CC(O)(CC(=O)[O-])C(=O)[O-].[Fe+3] [STM-182-1]
